# From patent US6172066A, “Dihydropyrimidines and uses thereof” (Synaptic Pharmaceutical Corporation, priority 1997, dated 2001)
# Where a name gives a salt, the structure may show the parent alone.
# Experiments:
# [1] = target: T1, α1D Human Adrenergic Receptor (Homo sapiens, UniProt P25100); assay: Radioligand binding, [3H]prazosin displacement, cloned human α1D receptor (LM(tk-) cell membranes); details: [3H]prazosin 0.5 nM, 37° C., 20 min; for Ki: read-out: hα1D pKi (converted)
# T1 construct: The entire coding region of α1D (1719 bp); expressed in transfected cells
# T1 sequence (P25100 1-572): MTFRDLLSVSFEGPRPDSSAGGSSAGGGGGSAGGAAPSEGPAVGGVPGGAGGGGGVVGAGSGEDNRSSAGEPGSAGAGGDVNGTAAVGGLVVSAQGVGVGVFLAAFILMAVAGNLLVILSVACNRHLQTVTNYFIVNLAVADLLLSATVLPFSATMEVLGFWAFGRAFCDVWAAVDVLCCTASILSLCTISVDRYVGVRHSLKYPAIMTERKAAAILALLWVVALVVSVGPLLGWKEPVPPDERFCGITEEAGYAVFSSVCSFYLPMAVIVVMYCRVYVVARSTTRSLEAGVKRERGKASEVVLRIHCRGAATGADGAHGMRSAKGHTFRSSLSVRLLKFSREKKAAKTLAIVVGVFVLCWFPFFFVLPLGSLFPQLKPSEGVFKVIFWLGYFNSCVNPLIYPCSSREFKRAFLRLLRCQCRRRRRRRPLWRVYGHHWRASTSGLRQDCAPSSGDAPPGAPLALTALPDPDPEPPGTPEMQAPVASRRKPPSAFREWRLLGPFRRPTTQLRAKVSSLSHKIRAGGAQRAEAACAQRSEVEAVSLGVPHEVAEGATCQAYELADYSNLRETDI
# Protocol: (§1) The activity of compounds at the different human receptors was determined in vitro using cultured cell lines that selectively express the receptor of interest. These cell lines were prepared by transfecting the cloned cDNA or cloned genomic DNA or constructs containing both genomic DNA and cDNA encoding the human α-adrenergic receptors as follows:
# The entire coding region of α1D (1719 bp), including 150 base pairs of 5' untranslated sequence (5' UT) and 300 bp of 3' untranslated sequence (3' UT), was cloned into the BamHI and ClaI sites of the polylinker-modified eukaryotic expression vector pCEXV-3, called EXJ.HR. The construct involved the ligation of partial overlapping human lymphocyte genomic and hippocampal cDNA clones: 5' sequence were contained on a 1.2 kb SmaI-XhoI genomic fragment (the vector-derived BamHI site was used for subcloning instead of the internal insert-derived SmaI site) and 3' sequences were contained on an 1.3 kb XhoI-ClaI cDNA fragment (the ClaI site was from the vector polylinker). Stable cell lines were obtained by cotransfection with the plasmid α1A/EXJ (expression vector containing the α1A receptor gene (old nomenclature)) and the plasmid pGCcos3neo (plasmid containing the aminoglycoside transferase gene) into LM(tk-) cells using calcium phosphate technique. The cells were grown, in a controlled environment (37° C., 5% CO2), as monolayers in Dulbecco's modified Eagle's Medium (GIBCO, Grand Island, N.Y.) containing 25 mM glucose and supplemented with 10% bovine calf serum, 100 units/ml penicillin g, and 100 μg/ml streptomycin sulfate. Stable clones were then selected for resistance to the antibiotic G-418 (1 mg/ml), and membranes were harvested and assayed for their ability to bind [^3 H]prazosin as described below (see "Radioligand Binding assays").
# The cell line expressing the human α1D receptor used herein was designated L-α1A (old nomenclature) and was deposited with the American Type Culture Collection, 12301 Parklawn Drive, Rockville, Md. 20852, U.S.A. under the provisions of the Budapest Treaty for the International Recognition of the Deposit of Microorganisms for the Purposes of Patent Procedure. The cell line expressing the human α1D receptor, was accorded ATCC Accession No. CRL 11138, and was deposited on Sep. 25, 1992.
# (§2) Transfected cells from culture flasks were scraped into 5 ml of 5 mM Tris-HCl, 5 mM EDTA, pH 7.5, and lysed by sonication. The cell lysates were centrifuged at 1000 rpm for 5 min at 4° C., and the supernatant was centrifuged at 30,000×g for 20 min at 4° C. The pellet was suspended in 50 mM Tris-HCl, 1 mM MgCl2, and 0.1% ascorbic acid at pH 7.5. Binding of the α1 antagonist [^3 H]prazosin (0.5 nM, specific activity 76.2 Ci/mmol) to membrane preparations of LM(tk-) cells was done in a final volume of 0.25 ml and incubated at 37° C. for 20 min. Nonspecific binding was determined in the presence of 10 μM phentolamine. The reaction was stopped by filtration through GF/B filters using a cell harvester. Inhibition experiments, routinely consisting of 7 concentrations of the tested compounds, were analyzed using a non-linear regression curve-fitting computer program to obtain Ki values.
# [2] = target: T2, α1B Human Adrenergic Receptor (Homo sapiens, UniProt P35368); assay: Radioligand binding, [3H]prazosin displacement, cloned human α1B receptor (LM(tk-) cell membranes); details: [3H]prazosin 0.5 nM, 37° C., 20 min; for Ki: read-out: hα1B pKi (converted)
# T2 construct: The entire coding region of a1B (1563 bp); expressed in transfected cells
# T2 sequence (P35368 1-520): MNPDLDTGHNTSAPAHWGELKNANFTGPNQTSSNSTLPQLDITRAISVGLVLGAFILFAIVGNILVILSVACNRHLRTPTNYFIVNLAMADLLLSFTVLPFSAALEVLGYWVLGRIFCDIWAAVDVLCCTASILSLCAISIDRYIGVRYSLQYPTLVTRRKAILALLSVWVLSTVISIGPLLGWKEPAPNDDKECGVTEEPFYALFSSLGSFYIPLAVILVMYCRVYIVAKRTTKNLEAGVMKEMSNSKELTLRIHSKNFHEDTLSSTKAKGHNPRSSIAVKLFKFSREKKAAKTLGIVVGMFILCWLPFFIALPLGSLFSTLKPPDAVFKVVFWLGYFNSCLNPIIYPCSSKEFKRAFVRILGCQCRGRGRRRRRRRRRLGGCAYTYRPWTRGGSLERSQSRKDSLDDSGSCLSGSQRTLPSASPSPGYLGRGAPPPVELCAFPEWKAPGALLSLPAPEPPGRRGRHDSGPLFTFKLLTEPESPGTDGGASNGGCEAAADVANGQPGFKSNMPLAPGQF
# Protocol: as §1
# The entire coding region of a1B (1563 bp), including 200 base pairs and 5' untranslated sequence (5' UT) and 600 bp of 3' untranslated sequence (3' UT), was cloned into the EcoRI site of pCEXV-3 eukaryotic expression vector. The construct involved ligating the full-length containing EcoRI brainstem cDNA fragment from λ ZapII into the expression vector. Stable cell lines were selected as described above. The cell line used herein was designated L-α1B and was deposited with the American Type Culture Collection, 12301 Parklawn Drive, Rockville, Md. 20852, U.S.A. under the provisions of the Budapest Treaty for the International Recognition of the Deposit of Microorganisms for the Purposes of Patent Procedure. The cell line L-α1B was accorded ATCC Accession No. CRL 11139, on Sep. 25, 1992.
# as §2
Ki [1],Ki [2],hα1D pKi [1],hα1B pKi [2],Compound
240 nM,100 nM,–,–,"CCC1=C(C(N)=O)C(c2ccc(F)cc2F)N(C(=O)NCCN[C@H]2CC[C@](C#N)(c3ccccc3)CC2)C(=O)N1 (single isomer, unassigned; (+)) [Example 3, (+)-cis-5-Carboxamido-6-(2,4-difluorophenyl)-1-{N-[2-(4-cyano-4-phenyl-cyclohexylamino)ethyl]}carboxamido-4-ethyl-2-oxo-1,2,3,6-tetrahydropyrimidine hydrochloride]"
100 nM,18.6 nM,–,–,"COCC1=C(C(=O)OC)C(c2ccc(F)c(F)c2)N(C(=O)NCCN[C@H]2CC[C@](C#N)(c3ccccc3)CC2)C(=O)N1 (single isomer, unassigned; (+)) [Example 4, (+)-cis-6-(3,4-Difluorophenyl)-1-{N-[2-(4-cyano-4-phenyl-cyclohexylamino)ethyl]}carboxamido-5-methoxycarbonyl-4-methoxymethyl-2-oxo-1,2,3,6-tetrahydropyrimidine hydrochloride]"
123 nM,26.9 nM,–,–,"COCC1=C(C(=O)OC)C(c2ccc(F)c(F)c2)N(C(=O)NCCN[C@H]2CC[C@@](C#N)(c3ccccc3)CC2)C(=O)N1 (single isomer, unassigned; (+)) [Example 5, (+)-trans-6-(3,4-Difluorophenyl)-1-{N-[2-(4-cyano-4-phenyl-cyclohexylamino)ethyl]}carboxamido-5-methoxycarbonyl-4-methoxymethyl-2-oxo-1,2,3,6-tetrahydropyrimidine hydrochloride]"
3890 nM,1120 nM,–,–,"COCC1=C(C(=O)OC)C(c2ccc(F)c(F)c2)N(C(=O)NCCN[C@H]2CC[C@H](c3ccccn3)CC2)C(=O)N1 (single isomer, unassigned; (+)) [Example 7, (+)-trans-6-(3,4-Difluorophenyl)-1-{N-[2-(4-(2-pyridyl)-cyclohexylamino)ethyl]}carboxamido-5-methoxycarbonyl-4-methoxymethyl-2-oxo-1,2,3,6-tetrahydropyrimidine hydrochloride]"
126 nM,27.5 nM,–,–,"COCC1=C(C(=O)OC)C(c2ccc(F)c(F)c2)N(C(=O)NCCN[C@H]2CC[C@](C(=O)OC)(c3ccccc3)CC2)C(=O)N1 (single isomer, unassigned; (+)) [Example 11, (+)-cis-6-(3,4-Difluorophenyl)-1-{N-[2-(4-methoxycarbonyl-4-phenyl-cyclohexylamino)ethyl]}carboxamido-5-methoxycarbonyl-4-methoxymethyl-2-oxo-1,2,3,6-tetrahydropyrimidine hydrochloride]"
51.3 nM,13.5 nM,–,–,"COC(=O)C1=C(C)NC(=O)N(C(=O)NCCN[C@H]2CC[C@](C#N)(c3ccccc3F)CC2)C1c1ccc(F)c(F)c1 (single isomer, unassigned; (+)) [Example 13, (+)-cis-6-(3,4-Difluorophenyl)-1-{N-[2-(4-cyano-4-(2-fluorophenyl)-cyclohexylamino)ethyl]}carboxamido-5-methoxycarbonyl-4-methyl-2-oxo-1,2,3,6-tetrahydropyrimidine hydrochloride]"
1100 nM,282 nM,–,–,"COCC1=C(C(=O)OC)C(c2ccc(F)c(F)c2)N(C(=O)NCCN[C@H]2CC[C@](C#N)(c3ccccn3)CC2)C(=O)N1 (single isomer, unassigned; (+)) [Example 14, (+)-cis-6-(3,4-Difluorophenyl)-1-{N-[2-(4-cyano-4-(2-pyridyl)-cyclohexylamino)ethyl]}carboxamido-5-methoxycarbonyl-4-methoxymethyl-2-oxo-1,2,3,6-tetrahydropyrimidine hydrochloride]"
–,–,7.05,7.76,"cis-6-(3,4,5-Trifluorophenyl)-1-{N-[2-(4-cyano-4-phenyl-cyclohexylamino)ethyl]}-carboxamido-5-acetyl-4-methoxymethyl-2-oxo-1,2,3,6-tetrahydropyrimidine hydrochloride [Example 2]"
